Several values for one entry are separate records, joined by “and”; a condition that tells them apart may be missing. Equal entries are not always repeated.
Tests used:
[1] = test system: BRCA2-WT cells; assay: Clonogenic assay (number of colonies counted); assay type: cell-based; details: three replicates
[2] = test system: VC8 cells; assay: Clonogenic assay; assay type: cell-based, Chinese hamster; details: for percent suvival: VC8 cells
Protocol: Cells were plated on six or twelve or twenty-four well plates. In six well plate, 1000 cells/ well of BRCA2 -/-, BRCA1 -/-, PALB2 mut and 500 cells/ well of wildtype pair was plated; In twelve well plate, 600 cells/ well of BRCA2 -/-, BRCA1 -/-, PALB2 mut and 400 cells/ well of wildtype pair was plated; In twenty-four well plate, 500 cells/ well of BRCA2 -/-, BRCA1 -/-, PALB2 mut and 300 cells/ well of wildtype pair was plated. For MEFs, 300 cells per well in six-well plate were seeded. The medium was replaced every 2 days until the colonies were ready for staining in 10–12 days. For staining: Medium was removed from plates, and cells were rinsed with PBS. Fixation was carried out with—Water: Ethanol: Acetic acid (5:4:1) for 30 min followed by staining of colonies with 0.5% crystal violet in Water: Ethanol (3:2) for 2 h at room temperature. The plates were rinsed with water and left for drying overnight at room temperature. Colonies were then counted and IC50 was calculated using results from 3 or more independent experiments. Response curves are shown as mean colony formation +/- S.E.M.
Data are expressed as mean ± SEM from at least 3 independent experiments with triplicates for each condition unless stated otherwise. When conducting comparison between two groups, two-tailed unpaired t-test was used. Significance was assumed at p < 0.05. Asterisks in the figures indicate significance, ^∗p < 0.05, ^∗∗p < 0.01, ^∗∗∗p < 0.001. Combenefit® software version 2.021 was used to perform synergy analyses for drug combinations between RTx-161 and PARPi. GraphPad Prism 9 software was used to calculate IC50.

[3] = target: T1, Polθ-pol on DNA/RNA (Homo sapiens, UniProt O75417); assay: Relative rate of ddCMP addition on DNA/RNA; assay type: biochemical; details: for Average % Extension (Single nt) / % Extension (Single nt) / % Extension of Control: RNA template; for Average % Extension (Single nt) / % Extension (Single nt): 2uM RTX-161; for Average % Extension (Single nt): average of 3 trials; for % Extension (Single nt) / % Extension of Control: single trials 1-3; for % Extension of Control: 2uM RTX-161 relative to DMSO
T1 construct: purified recombinant human Polθ-pol (comprising amino acid residues 1792–2590); made in house
T1 sequence (O75417 1792-2590): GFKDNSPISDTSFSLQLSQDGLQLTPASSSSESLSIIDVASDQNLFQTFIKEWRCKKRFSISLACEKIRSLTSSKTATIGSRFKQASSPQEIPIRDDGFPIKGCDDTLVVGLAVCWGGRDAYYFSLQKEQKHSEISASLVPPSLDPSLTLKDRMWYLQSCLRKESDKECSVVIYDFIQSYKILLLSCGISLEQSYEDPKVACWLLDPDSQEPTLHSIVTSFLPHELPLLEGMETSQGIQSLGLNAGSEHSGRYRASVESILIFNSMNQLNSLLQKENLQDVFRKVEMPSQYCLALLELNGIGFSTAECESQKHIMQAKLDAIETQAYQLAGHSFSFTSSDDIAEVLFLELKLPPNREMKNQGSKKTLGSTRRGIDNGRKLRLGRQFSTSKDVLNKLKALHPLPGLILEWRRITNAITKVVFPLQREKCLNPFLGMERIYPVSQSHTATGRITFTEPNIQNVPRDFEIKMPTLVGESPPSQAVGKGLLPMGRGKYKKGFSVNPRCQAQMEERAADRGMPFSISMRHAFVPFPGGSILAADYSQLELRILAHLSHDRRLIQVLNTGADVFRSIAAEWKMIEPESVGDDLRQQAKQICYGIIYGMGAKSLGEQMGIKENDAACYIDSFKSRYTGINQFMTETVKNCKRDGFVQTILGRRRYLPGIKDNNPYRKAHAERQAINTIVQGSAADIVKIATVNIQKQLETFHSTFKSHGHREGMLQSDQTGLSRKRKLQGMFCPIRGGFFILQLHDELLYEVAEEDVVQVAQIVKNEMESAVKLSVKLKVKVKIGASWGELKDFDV
Protocol: Relative rate of Polθ-pol dAMP addition. The relative rates of dAMP incorporation by Polq-pol in the presence of DMSO or MC160385 with various concentrations of dATP were measured using the following primer extension assay in vitro. 2 nM or Polθ-pol was incubated with 5’ ^32P-γ-ATP labeled 100 nM primer-template (RP469D/RP486) in 1X buffer (25 mM TrisHCl pH 7.8, 0.01% NP40, 10% glycerol, 1 mM DTT, 10 mM MgCl2, 0.1 mg/ml BSA) at room temp. 2.5% DMSO, 7.5 nM or 12 nM of MC160385 was added. Reactions were than initiated by the addition of 20, 50, 100, 200, or 300 μM dATP at room temp. Aliquots of the reactions were removed and terminated by the addition of 50 mM EDTA at 3, 3.5, 4 and 5 min after the reaction was initiated. Radio-labeled DNA was then resolved via denaturing 20% PAGE and visualized by Typhoon PhosphorImager (GE Amersham). Rates of dAMP incorporation were calculated from % extension of the prime-template which was determined using ImageJ software. Relative rate of ddCMP addition on DNA/DNA and DNA/RNA. 25 nM nucleic acid DNA/DNA or DNA/RNA primer-template (RP559/RP702 or RP559/RP702R) was mixed with 1X reaction buffer (20 mM TrisHCl pH 7.5, 0.01% NP-40, 0.5 mM DTT, 10% glycerol, 0.1 mg/ml BSA, 10 mM MgCl2) in the presence of 250 μM ddCTP at room temp. Next, 2 μM RTx-161 or 2.5% DMSO was added. Reactions were initiated by the addition of 10 nM Polθ-pol. Reaction aliquots were removed and terminated by the addition of 50 mM EDTA at the indicated time points. Radio-labeled DNA was then resolved via denaturing 20% PAGE and visualized by Typhoon PhosphorImager. Percent primer extension by single ddCMP addition at each time point was calculated from % extension of the prime-template which was determined using ImageJ software.

In the case of `CN(C(=O)Oc1ccc(C(F)(F)F)cc1C(F)(F)F)c1ccc(F)cc1` [MC160385], the “number of olonies counted” value ([1]; MC160385 2.5 μM) is reported as 84 and 87 and 85, the “number of olonies counted” value ([1]; MC160385 5 μM) is reported as 82 and 86 and 83 and the “number of olonies counted” value ([1]; MC160385 10 μM) is reported as 80 and 84 and 82. For the same compound, the “number of olonies counted” value ([1]; MC160385 20 μM) was 79 and 84 and 80.
`CN(C(=O)Oc1c(N2CCN(CCO)C2=O)cc(C(F)(F)F)cc1C(F)(F)F)c1ccc(F)cc1` [RTx-161] was tested, and the percent suvival ([2]; RTX-161 1 micro M + ola 30.00 nano M) was 0%, the percent suvival ([2]; RTX-161 1 micro M, ola 0.00 nano M) was 79.4521% and 92.4444% and 101.498% and the percent suvival ([2]; RTX-161 3 micro M + ola 30.00 nano M) was 0%. The percent suvival ([2]; RTX-161 3 micro M, ola 0.00 nano M) was 62.3288% and 70.2222% and 85.0187%, the “combination with Olaparib” value ([2]; clonogenic survival) was “significantly reduced cellular resistance to Olaparib” and the “inhibition of single nucleotide incorporation on DNA/RNA” value ([3]; 2 μM RTx-161, open conformation) was “failed to significantly inhibit”. For the same compound, the “Average % Extension (Single nt)” value ([3]; Time 0) was 0.00%, the “% Extension (Single nt)” value ([3]; Time 0) was 0.00% and the “Average % Extension (Single nt)” value ([3]; Time 5) was 4.59%. For the same compound, the “% Extension (Single nt)” value ([3]; Time 5) was 2.50% and 5.50% and 5.76%, the “Average % Extension (Single nt)” value ([3]; Time 10) was 7.95% and the “% Extension (Single nt)” value ([3]; Time 10) was 4.80% and 9.47% and 9.59%. The “Average % Extension (Single nt)” value ([3]; Time 20) was 16.13%, the “% Extension (Single nt)” value ([3]; Time 20) was 15.85% and 16.30% and 16.24% and the “Average % Extension (Single nt)” value ([3]; Time 40) was 27.98%. For the same compound, the “% Extension (Single nt)” value ([3]; Time 40) was 29.57% and 26.15% and 28.23%, the “% Extension of Control” value ([3]; Time 5) was 47.30% and 65.75% and 74.39% and the “% Extension of Control” value ([3]; Time 10) was 39.83% and 67.79% and 72.59%. The “% Extension of Control” value ([3]; Time 20) was 72.60% and 71.13% and 71.98% and the “% Extension of Control” value ([3]; Time 40) was 79.52% and 73.56% and 82.47%.

Reference: publication PMC10997755, “Discovery of a small-molecule inhibitor that traps Polθ on DNA and synergizes with PARP inhibitors” (Nature Communications, 2024)
